According to US20220154296A1, “USE OF ANTI-PD-1 ANTIBODY IN PREPARATION OF MEDICAMENT FOR TREATING SOLID TUMORS” (Shanghai Junshi Biosciences Co., Ltd., priority 2019, published 2022):

B1: SHR-1210: anti-PD-1 antibody SHR-1210, in clinical stage (antibody, chains of the INN, looked up, V domains shown)
VH: EVQLVESGGGLVQPGGSLRLSCAASGFTFSSYMMSWVRQAPGKGLEWVATISGGGANTYYPDSVKGRFTISRDNAKNSLYLQMNSLRAEDTAVYYCARQLYYFDYWGQGTTVTVSS
VL: DIQMTQSPSSLSASVGDRVTITCLASQTIGTWLTWYQQKPGKAPKLLIYTATSLADGVPSRFSGSGSGTDFTLTISSLQPEDFATYYCQQVYSIPWTFGGGTKVEIK

Columns and labels:
[1] = test system: CT-26 cells; test: Inhibitory effect on tumor growth in CT-26 cell-transplanted B-hPD-1 mice; type: in vivo
Procedure: CT-26 cells were seeded subcutaneously on the right side of hPD-1 humanized female mice at a concentration of 2.5×10^5 cells/0.1 mL, and the mice were randomly grouped by tumor volume when tumors grew to about 93 mm^3 with 7 mice per group, for a total of 4 groups:
G1: Anti-KLH hIgG4 (1 mg/kg) negative control group;
G3: palbociclib (100 mg/kg);
The experiment was ended 11 days after the first administration. Tumor volume and body weight of mice were measured and recorded twice a week. At the end of the experiment, animals were euthanized and tumor growth inhibition (TGITv%) was calculated.

[2] = test system: chemotherapy-refractory ESCC; conditions: chemotherapy-refractory ESCC patients in China; cited from earlier work

Molecule | TGI (%) ([1]; 11 days after the first administration, toripalimab 1 mg/kg i.p., palbociclib 100 mg/kg orally) | Tumor volume 11 days after the first administration ([1]; mean ± standard error, toripalimab 1 mg/kg i.p. twice a week, palbociclib 100 mg/kg orally once a day, 7 mice per group) [mm^3] | Anti-tumor activity [2] | Safety [2]
CC(=O)c1c(C)c2cnc(Nc3ccc(N4CCNCC4)cn3)nc2n(C2CCCC2)c1=O [palbociclib, reference compound] | 44.8 | 1550 ± 189 |  | 
B1 |  |  | effective anti-tumor activity | controllable safety
